{"source": "patent US9442092B2", "about": "“Methods for treatment of autism” (priority 2011, dated 2016)", "origin": "cited, not measured here", "key": {"[1]": {"tested_on": "HIV"}, "[2]": {"details": "in vivo"}}}
{"smiles": "COc1cc2c(c3oc(=O)c4c(c13)CCC4=O)[C@@H]1C=CO[C@@H]1O2", "note": "[Aflatoxin]", "values": [{"measurement": "Increase of HIV levels", "setting": "[1]", "result": 500, "unit": "%"}]}
{"smiles": "CC(C)Cc1ccc(C(C)C(=O)O)cc1", "note": "(stereo not drawn) [Ibuprofen]", "values": [{"measurement": "Association with Autism", "setting": "[2]", "result": "no association"}]}
{"smiles": "CN1C(=O)[C@]23CC4=CC=C[C@H](O)[C@H]4N2C(=O)[C@@]1(CO)SS3", "note": "[gliotoxin, Gliotoxin]", "values": [{"measurement": "Increase of HIV levels", "setting": "[1]", "result": 500, "unit": "%"}]}
